Reference: patent US20100068150A1, “Selective Caspase Inhibitors” (The Board of Trustees of the Leland Stanford Junior …, priority 2006, published 2010)

Target: T1, FL-C7 (full-length caspase-7) (Homo sapiens, UniProt P55210)
T1 construct: the p37 band as the full-length caspase-7 with intact N-terminus (FL-C7); endogenous in cells
T1 sequence (P55210 1-303): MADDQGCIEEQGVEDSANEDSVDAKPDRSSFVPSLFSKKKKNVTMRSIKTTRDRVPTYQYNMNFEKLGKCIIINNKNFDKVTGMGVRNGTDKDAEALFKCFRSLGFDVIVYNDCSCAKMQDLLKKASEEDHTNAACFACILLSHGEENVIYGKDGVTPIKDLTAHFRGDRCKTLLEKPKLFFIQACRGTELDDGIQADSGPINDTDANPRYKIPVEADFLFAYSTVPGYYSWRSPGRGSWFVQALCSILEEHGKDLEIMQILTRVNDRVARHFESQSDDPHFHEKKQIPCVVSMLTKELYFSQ
Assay: Inhibitor specificity in hypotonic 293 extracts, full-length caspase-7
Format: biochemical
Conditions: inhibitor 20 μM for 5 min, then KMB01 30 min
Excerpt: FIGS. 6 A-E illustrate that full-length active caspase-7 has unique inhibitor specificity and is processed to mature forms by downstream executioner caspases. (A) The caspase-3 specific inhibitor causes accumulation of a catalytically active full-length form of caspase-7. Cytosolic extracts from 293 cells were activated with cytochrome c/dATP for the indicated times followed by labeling with KMB01 (left panel) and western blotting with a caspase-7 specific antibody (right panel) as in FIG. 5A. […] (B) The exact same experiment as (A) except extracts from MCF-7 cells were used in place of 293 extracts. (**) indicates forms of caspase-7 that are likely a result of the alternative transcription start site at methionine-45 (C) Quantification of the relative activity of FL-C7 in uninhibited 293 extracts (from FIG. 5A), AB06 treated 293 extracts (from (A)) and uninhibited MCF-7 extracts (from (B)) (D) Inhibitor specificity of full-length and processed forms of caspase-7. Extracts (293) were activated for 5 min with cytochrome c/dATP and then incubated with NP-capped AOMK inhibitors containing the indicated primary amino acid sequences for 5 minutes before KMB01 was added and allowed to label residual caspase active sites for 30 minutes. Samples were analyzed by SDS-PAGE followed by biotin blotting using strepavidin-HRP (left panel) or western blotting for caspase-7 (right panel). Identities of labeled caspases are indicated. (E) Specificity of AB06 after prolonged incubation times. Extracts were treated with AB06 at the indicated concentrations simultaneously with cytochrome c/dATP. At the indicated times after activation, samples were labeled with KMB01 (10 μM) for 30 minutes. Labeled caspases were resolved by SDS-PAGE analysis followed by biotin blotting using strepavidin-HRP.
To further confirm our assignment of the labeled species we treated samples at various activation times with purified recombinant Bir3 domain of XIAP. […]
An additional surprising finding from the inhibitor studies was the overall lack of inhibition of the FL-C7 species by AB06 relative to mature p20 forms of caspase-7. […] Samples were analyzed for active site labeling and protein levels of both full-length and p20 forms of caspase-7 were monitored by western blot (FIG. 6D).
Hypotonic 293 extracts (73 μg of total protein) were activated as described above and allowed to incubate for the indicated times. […] Labeling was carried out for an additional 30 minutes and samples (13.5 μg total protein) were analyzed by SDS-PAGE and biotin blotting as described above.
Hypotonic 293 extracts (73 μg of total protein) were activated at 37° C. for 5 minutes as described above. […] Samples (13.5 μg total protein) were analyzed by SDS-PAGE and biotin blotting as described above

| Compound | inhibition of FL-C7 labeling |
| --- | --- |
| Cc1cccc(C)c1C(=O)OCC(=O)[C@H](CC(=O)O)NC(=O)[C@@H](NC(=O)[C@H](Cc1ccncc1)NC(=O)[C@H](CC(=O)O)NC(=O)Cc1ccc(O)c([N+](=O)[O-])c1)C(C)C [AB06, Np-D-3-V-D-DMBA] | relatively insensitive to inhibition |
| Cc1cccc(C)c1C(=O)OCC(=O)[C@H](CC(=O)O)NC(=O)[C@@H](NC(=O)[C@H](CCC(=O)O)NC(=O)[C@H](CC(=O)O)NC(=O)Cc1ccc(O)c([N+](=O)[O-])c1)C(C)C [AB09, Np-D-E- V-D-DMBA] | almost totally inhibited |
